In patent US4370327A, “Cephalosporins and pharmaceutical compositions” (Boehringer Ingelheim GmbH, priority 1980, dated 1983):
In brackets after ≈: the same amount, converted by molar mass.

Legend:
[1] = test system: Prot. rettg. BC 17; experiment: serial dilution test in the microtiter system, minimum inhibitory concentration; assay type: cell-based, Proteus rettgeri; details: Providencia rettgeri, 37° C., 18 to 20 hours
Method: (§1) The tests were performed using the serial dilution test in the microtiter system. The effect of the text compounds on bacteriostasis was examined at the following concentrations: 128, 64, 32, 16, 8, 4, 2, 1, 0.5, 0.25, 0.12, 0.06, 0.03, and 0.015 μg/ml. The nutrient medium consisted of 10 gm of peptone, 8 g of meat extract oxoid, 3 g of sodium chloride, and 2 g of sec. sodium phosphate diluted with distilled water to […] (pH 7.2-7.4). The age of the primary cultures was approximately 20 hours. The standardization of the bacteria suspension was effected using a photometer according to the method of Eppendorf (test tube .phi. 14 mm, filter 546 nm), using for comparison a barium sulfate suspension formed by the addition of 3.0 ml of 1% barium chloride solution to 97 ml of 1% sulfuric acid. After the standardization, the test pathogens were diluted further in a ratio of 1:1500 with a common salt solution.
(§2) Sixteen milligrams of a particular test compound were put into a 10 ml measuring flask, and the flask was subsequently filled to the mark with solvent. Further dilutions in the series were made with distilled water or the appropriate solvent.
(§3) The cavities of the microtiter plates were filled sequentially with 0.2 ml of nutrient medium, 0.01 ml of the appropriate test compound solution, and then 0.01 ml of the standardized bacteria suspension. The bacteria were incubated at 37° C. for from 18 to 20 hours. Control tests using only the solvent were carried out simultaneously.
(§4) The measurement was carried out macroscopically to determine the minimum inhibitory concentration (the lowest, still bacteriostatically effective concentration).
(§5) The following test organisms were used:
(§6) Staphylococcus aureus SG 511, Escherichia coli ATCC 11 775, Pseudomonas aeruginosa Hamburgensis and Pseudomonas aeruginosa Walter, Serratia marcescens ATCC 13 880, Klebsiella pneumoniea ATCC 10 031 and BC 6, Proteus mirabilis BC 17, Proteus rettgeri BC 7, Enterobacter cloaceae ATCC 13 047, and E. coli R+TEM (β-lactamase carrier), and Klebsiella pneumoniae 1082 E (β-lactamase carrier).
(§7) Representative compounds of the compounds of Formula I were tested. Those representative compounds comprised sodium salts of compounds of Formula I wherein R, D, and Y had the meanings set forth in the following table: […]

[2] = test system: Pseudomonas aeruginosa Walter; experiment: as above; assay type: cell-based; details: Pseud. aeru Walter, 37° C., 18 to 20 hours
Method: as §1, §2, §3, §4, §5, §6, §7

[3] = test system: Escherichia coli ATCC 11 775; experiment: as above; assay type: cell-based; details: E. coli ATCC 11775, 37° C., 18 to 20 hours
Method: as §1, §2, §3, §4, §5, §6, §7

[4] = test system: Pseudomonas aeruginosa Hamburgensis; experiment: as above; assay type: cell-based; details: Pseud. aeru Hbg., 37° C., 18 to 20 hours
Method: as §1, §2, §3, §4, §5, §6, §7

[5] = test system: Proteus mirabilis BC 17; experiment: as above; assay type: cell-based; details: BC17, Prot. mir. BC 17, 37° C., 18 to 20 hours
Method: as §1, §2, §3, §4, §5, §6, §7

[6] = test system: Klebsiella pneumoniae 1082 E (β-lactamase carrier); experiment: as above; assay type: cell-based; details: Klebs. pneum. 1082 E, 37° C., 18 to 20 hours
Method: as §1, §2, §3, §4, §5, §6, §7

[7] = test system: Serratia marcescens ATCC 13 880; experiment: as above; assay type: cell-based; details: Serr. marcesc. ATCC 13880, 37° C., 18 to 20 hours
Method: as §1, §2, §3, §4, §5, §6, §7

[8] = test system: Staphylococcus aureus SG 511; experiment: as above; assay type: cell-based; details: SG511, St. aureus SG 511, 37° C., 18 to 20 hours
Method: as §1, §2, §3, §4, §5, §6, §7

[9] = test system: Enterobacter cloaceae ATCC 13 047; experiment: as above; assay type: cell-based; details: Enterob. cloacae ATCC 13047, 37° C., 18 to 20 hours
Method: as §1, §2, §3, §4, §5, §6, §7

[10] = test system: Klebsiella pneumoniea ATCC 10 031; experiment: as above; assay type: cell-based, Klebsiella pneumoniae; details: Klebs. pneum. ATCC 10031, 37° C., 18 to 20 hours
Method: as §1, §2, §3, §4, §5, §6, §7

[11] = test system: Klebsiella pneumoniea BC 6; experiment: as above; assay type: cell-based, Klebsiella pneumoniae; details: BC6, Klebs. pneum. BC 6, 37° C., 18 to 20 hours
Method: as §1, §2, §3, §4, §5, §6, §7

[12] = test system: E. coli ATCC 11775; experiment: in vivo test against experimental intraperitoneal infection in mice; set-up: species or system E. coli in female mice of the NMRI strain; details: Escherichia coli, ATCC11775, sc, 168 h; subcutaneous, one treatment 1 hour after i.p. infection, observation 7 days; read-out: ED50 (dose at which 50% of the animals survived)
Method: A number of the compounds according to the invention were tested in vivo against experimental infections in mice. E. coli ATCC 11775 was used as the pathogenic bacteria. An intraperitoneal infection was produced with 0.2 ml of a bacterial suspension (with 5% mucin), which corresponds to about 1.4×10^6 E. coli bacteria per mouse. Female mice of the NMRI strain were divided up into groups of 10 animals. Two groups were untreated, and the other groups were treated with various doses of the cephalosporins according to the invention, administered subcutaneously, to determine the ED50 (does at which 50% of the animals survived). One treatment was administered 1 hour after the infection.
In both cases, the observation period was 7 days.

| MIC [1] [µg/mL] | MIC [2] [µg/mL] | MIC [3] [µg/mL] | MIC [4] [µg/mL] | MIC [5] [µg/mL] | MIC [7] [µg/mL] | MIC [8] [µg/mL] | MIC [9] [µg/mL] | MIC [10] [µg/mL] | MIC [11] [µg/mL] | Compound | MIC [6] [µg/mL] | ED50 [12] [mg/kg] |
| --- | --- | --- | --- | --- | --- | --- | --- | --- | --- | --- | --- | --- |
| 0.25 (≈ 0.316 µM) | 16 (≈ 20.2 µM) | 0.06 (≈ 0.0759 µM) | 16 (≈ 20.2 µM) | 0.25 (≈ 0.316 µM) | 0.5 (≈ 0.632 µM) | 1 (≈ 1.26 µM) | 0.5 (≈ 0.632 µM) | 0.12 (≈ 0.152 µM) | 0.12 (≈ 0.152 µM) | Cn1nnnc1SCC1=C(C(=O)O)N2C(=O)[C@@H](NC(=O)C(NC(=O)Nc3cnc(Nc4ccc(S(N)(=O)=O)cc4)nc3O)c3csc(N)n3)[C@H]2SC1 (some centres unmarked) [F] | 64 (≈ 80.9 µM) | – |
| 0.12 (≈ 0.177 µM) | 32 (≈ 47.2 µM) | 0.06 (≈ 0.0885 µM) | 32 (≈ 47.2 µM) | 0.06 (≈ 0.0885 µM) | 0.25 (≈ 0.369 µM) | 1 (≈ 1.48 µM) | 0.25 (≈ 0.369 µM) | 0.12 (≈ 0.177 µM) | 0.06 (≈ 0.0885 µM) | CCCNc1ncc(NC(=O)NC(C(=O)N[C@@H]2C(=O)N3C(C(=O)O)=C(CSc4nnnn4C)CS[C@H]23)c2csc(N)n2)c(O)n1 (some centres unmarked) [B] | 16 (≈ 23.6 µM) | – |
| 2 (≈ 4.71 µM) | > 128 | 8 (≈ 18.9 µM) | > 128 | 0.5 (≈ 1.18 µM) | 8 (≈ 18.9 µM) | 1 (≈ 2.36 µM) | 32 (≈ 75.4 µM) | 2 (≈ 4.71 µM) | 4 (≈ 9.43 µM) | CO/N=C(\C(=O)N[C@@H]1C(=O)N2C(C(=O)O)=C(COC(N)=O)CS[C@H]12)c1ccco1 [Cefuroxime, reference compound] | – | > 100 |
| > 128 | > 128 | 4 (≈ 8.8 µM) | > 128 | 4 (≈ 8.8 µM) | > 128 | 0.06 (≈ 0.132 µM) | > 128 | 1 (≈ 2.2 µM) | 2 (≈ 4.4 µM) | Cc1nnc(SCC2=C(C(=O)O)N3C(=O)[C@@H](NC(=O)Cn4cnnn4)[C@H]3SC2)s1 [Cefazoline, reference compound] | > 128 | – |
| 0.25 (≈ 0.36 µM) | 32 (≈ 46.1 µM) | 0.06 (≈ 0.0865 µM) | 32 (≈ 46.1 µM) | 0.06 (≈ 0.0865 µM) | 0.25 (≈ 0.36 µM) | 2 (≈ 2.88 µM) | 0.5 (≈ 0.721 µM) | 0.25 (≈ 0.36 µM) | 0.12 (≈ 0.173 µM) | Cn1nnnc1SCC1=C(C(=O)O)N2C(=O)[C@@H](NC(=O)C(NC(=O)Nc3cnc(NCCCO)nc3O)c3csc(N)n3)[C@H]2SC1 (some centres unmarked) [C] | 32 (≈ 46.1 µM) | – |
| – | – | – | – | – | – | – | – | – | – | CCN1CCN(C(=O)N[C@@H](C(=O)N[C@@H]2C(=O)N3C(C(=O)O)=C(CSc4nnnn4C)CS[C@H]23)c2ccc(O)cc2)C(=O)C1=O [Cefaperazone (T 1551), reference compound] | – | 3.1 |

| Compound | MIC [1] [µg/mL] | MIC [2] [µg/mL] | MIC [3] [µg/mL] | MIC [4] [µg/mL] | MIC [5] [µg/mL] | MIC [7] [µg/mL] | MIC [8] [µg/mL] | MIC [9] [µg/mL] | MIC [10] [µg/mL] | MIC [11] [µg/mL] | MIC [6] [µg/mL] | ED50 [12] [mg/kg] |
| --- | --- | --- | --- | --- | --- | --- | --- | --- | --- | --- | --- | --- |
| Cn1nnnc1SCC1=C(C(=O)O)N2C(=O)[C@@H](NC(=O)C(NC(=O)Nc3cnc(C4CC4)nc3O)c3csc(N)n3)[C@H]2SC1 (some centres unmarked) [A] | 0.12 (≈ 0.182 µM) | 32 (≈ 48.4 µM) | 0.03 (≈ 0.0454 µM) | 32 (≈ 48.4 µM) | 0.03 (≈ 0.0454 µM) | 0.25 (≈ 0.378 µM) | 1 (≈ 1.51 µM) | 0.5 (≈ 0.757 µM) | 0.03 (≈ 0.0454 µM) | 0.06 (≈ 0.0908 µM) | 32 (≈ 48.4 µM) | 0.5 |
| CC(=O)OCC1=C(C(=O)O)N2C(=O)[C@@H](NC(=O)C(NC(=O)Nc3cnc(Nc4ccc(S(N)(=O)=O)cc4)nc3O)c3csc(N)n3)[C@H]2SC1 (some centres unmarked) [Compound E] | 0.12 (≈ 0.163 µM) | 8 (≈ 10.9 µM) | 0.03 (≈ 0.0408 µM) | 16 (≈ 21.8 µM) | 0.12 (≈ 0.163 µM) | 0.12 (≈ 0.163 µM) | 0.5 (≈ 0.68 µM) | 0.25 (≈ 0.34 µM) | 0.06 (≈ 0.0817 µM) | 0.06 (≈ 0.0817 µM) | 32 (≈ 43.6 µM) | 0.1 to 0.3 |
| Cn1nnnc1SCC1=C(C(=O)O)N2C(=O)[C@@H](NC(=O)C(NC(=O)Nc3cnc(NC4CCC(O)CC4)nc3O)c3csc(N)n3)[C@H]2SC1 (some centres unmarked) [D] | 0.12 (≈ 0.164 µM) | 16 (≈ 21.8 µM) | 0.06 (≈ 0.0818 µM) | 16 (≈ 21.8 µM) | 0.12 (≈ 0.164 µM) | 0.25 (≈ 0.341 µM) | 2 (≈ 2.73 µM) | 0.25 (≈ 0.341 µM) | 0.06 (≈ 0.0818 µM) | 0.06 (≈ 0.0818 µM) | 32 (≈ 43.6 µM) | < 0.3 |
| Cn1nnnc1SCC1=C(C(=O)O)N2C(=O)[C@@H](NC(=O)C(NC(=O)Nc3cnc(NCc4ccc(O)cc4)nc3O)c3csc(N)n3)[C@H]2SC1 (some centres unmarked) [G] | 0.06 (≈ 0.0809 µM) | 8 (≈ 10.8 µM) | 0.03 (≈ 0.0404 µM) | 16 (≈ 21.6 µM) | 0.03 (≈ 0.0404 µM) | 0.12 (≈ 0.162 µM) | 0.5 (≈ 0.674 µM) | 0.12 (≈ 0.162 µM) | 0.06 (≈ 0.0809 µM) | 0.03 (≈ 0.0404 µM) | 16 (≈ 21.6 µM) | < 0.2 |
